Literature values as cited in the PKSmart pharmacokinetics tables (Seal et al. 2025).

Columns and labels:
[1] = Lombardo, Berellini, Obach 2018, Drug Metab Dispos 46:1466, doi 10.1124/dmd.118.082966; details: human; for MRT / Vd / clearance / half-life: in vivo, iv; for fraction unbound: plasma
[2] = Lombardo et al. 2013, J Clin Pharmacol 53:178, doi 10.1177/0091270012440282; details: for Vd / clearance: in vivo, iv; for fraction unbound: plasma

| Compound | MRT [1] | Vd [1] | clearance [1] | fraction unbound [1] | Vd ([2]; rat) | clearance ([2]; rat) | fraction unbound ([2]; rat) | half-life [1] | Vd ([2]; dog) | clearance ([2]; dog) | fraction unbound ([2]; dog) | Vd ([2]; monkey) | clearance ([2]; monkey) | fraction unbound ([2]; monkey) |
| --- | --- | --- | --- | --- | --- | --- | --- | --- | --- | --- | --- | --- | --- | --- |
| CC(=O)Nc1nnc(S(N)(=O)=O)s1 | 9.5 h | 0.37 L/kg | 0.65 mL/min/kg | 0.04 | 0.21 L/kg | 68 mL/min/kg | 0.2 | – | – | – | – | – | – | – |
| Nc1ccn([C@@H]2O[C@H](CO)[C@@H](O)[C@@H]2O)c(=O)n1 | 0.28 h | 0.67 L/kg | 41.7 mL/min/kg | – | – | – | – | 0.17 h | 0.86 L/kg | 11.3 mL/min/kg | – | – | – | – |
| CS(=O)(=O)OCCCCOS(C)(=O)=O | 3.8 h | 0.55 L/kg | 2.4 mL/min/kg | – | 0.68 L/kg | 5 mL/min/kg | 0.91 | 3.4 h | 1 L/kg | 19.2 mL/min/kg | – | – | – | – |
| CNS(=O)(=O)Cc1ccc2[nH]cc(CCN(C)C)c2c1 | 1.5 h | 1.7 L/kg | 19 mL/min/kg | – | 1.15 L/kg | 28 mL/min/kg | 0.85 | 1.7 h | 1.74 L/kg | 13.9 mL/min/kg | 0.86 | – | – | – |
| CN(C)CCCN1c2ccccc2CCc2ccc(Cl)cc21 | 26 h | 13 L/kg | 8.2 mL/min/kg | – | – | – | – | – | 3.7 L/kg | 23.3 mL/min/kg | 0.01 | – | – | – |
| O=C(c1ccc(F)cc1)C1CCN(CCn2c(=O)[nH]c3ccccc3c2=O)CC1 | – | – | – | – | – | 3.8 mL/min/kg | 0.01 | 12 h | – | 24.7 mL/min/kg | 0.0948 | – | – | – |
| N[C@@H](CC(=O)N1CCn2c(nnc2C(F)(F)F)C1)Cc1cc(F)c(F)cc1F | 7.8 h | 2.8 L/kg | 6 mL/min/kg | – | 8.1 L/kg | 45 mL/min/kg | 0.68 | 12 h | 3.3 L/kg | 9.1 mL/min/kg | 0.556 | – | – | – |
| NC(=O)OC[C@@H]1C(=NC(=O)C(NOCC(=O)O)c2csc(N)n2)C(=O)N1S(=O)(=O)O (some centres not stated) | 2 h | 0.18 L/kg | 1.5 mL/min/kg | 0.72 | 0.1 L/kg | 22 mL/min/kg | 0.7 | 1.6 h | 0.1 L/kg | 5.5 mL/min/kg | 0.89 | 0.12 L/kg | 4.5 mL/min/kg | 0.76 |
| CC1(C)S[C@@H]2C(NC(=O)C(NC(=O)N3CCN(S(C)(=O)=O)C3=O)c3ccccc3)C(=O)N2C1C(=O)O (some centres not stated) | 0.71 h | 0.09 L/kg | 2.1 mL/min/kg | 0.7 | 0.3 L/kg | 50 mL/min/kg | 0.65 | 1.2 h | – | – | – | – | – | – |
| Nc1ccc(S(=O)(=O)c2ccc(N)cc2)cc1 | 29 h | 0.83 L/kg | – | 0.25 | 1.6 L/kg | 5.2 mL/min/kg | – | – | – | – | – | – | – | – |
| Nc1nc(NC2CC2)c2ncn([C@H]3C=C[C@@H](CO)C3)c2n1 | 1.1 h | 0.84 L/kg | 13 mL/min/kg | 0.5 | – | 30 mL/min/kg | – | 1 h | – | – | – | – | – | – |
| C[C@@H](O)C1C(=O)N2C(C(=O)O)=C(COC(N)=O)S[C@H]12 (some centres not stated) | 0.54 h | 0.24 L/kg | 7.55 mL/min/kg | 0.72 | 0.05 L/kg | 15.5 mL/min/kg | 0.5 | 0.54 h | 0.22 L/kg | 7.4 mL/min/kg | 0.95 | 0.14 L/kg | 4.65 mL/min/kg | 0.56 |
| CN1CCc2cccc3c2[C@H]1Cc1ccc(O)c(O)c1-3 | 0.67 h | 1.6 L/kg | 40 mL/min/kg | 0.05 | – | – | 0.1 | – | – | – | – | – | – | – |
| Nc1nc(C(=NO)C(=O)NC2C(=O)N3C(C(=O)O)=C(C=C4CCN(CC(F)(F)F)C4=O)CS[C@H]23)cs1 (some centres not stated) | 4.8 h | 0.11 L/kg | 0.38 mL/min/kg | 0.043 | 0.15 L/kg | 0.95 mL/min/kg | 0.025 | 3.8 h | 0.18 L/kg | 2.7 mL/min/kg | 0.16 | 0.12 L/kg | 0.77 mL/min/kg | 0.05 |
| COc1c(N2CCNC(C)C2)c(F)cc2c(=O)c(C(=O)O)cn(C3CC3)c12 (configuration not stated) | 11 h | 1.7 L/kg | 2.8 mL/min/kg | – | 2.5 L/kg | 19.3 mL/min/kg | 0.75 | 10 h | 2.11 L/kg | 4.2 mL/min/kg | 0.84 | 1.85 L/kg | 10.2 mL/min/kg | 0.83 |
| COc1ccc(Cc2nccc3cc(OC)c(OC)cc23)cc1OC | 1.4 h | 1 L/kg | 11 mL/min/kg | – | – | – | 0.09 | 1.8 h | 3.01 L/kg | 21.8 mL/min/kg | 0.1 | – | – | – |
| Cn1nnnc1SCC1=C(C(=O)O)N2C(=O)C(NC(=O)C(O)c3ccccc3)[C@H]2SC1 (some centres not stated) | 0.75 h | 0.16 L/kg | 3.6 mL/min/kg | 0.25 | 0.25 L/kg | 21.8 mL/min/kg | – | 0.75 h | – | – | – | – | – | – |
| CCCCCN(CCCOC)C(=O)C(CCC(=O)O)NC(=O)c1ccc(Cl)c(Cl)c1 (configuration not stated) | 2.4 h | 0.21 L/kg | 2.35 mL/min/kg | – | 0.98 L/kg | 6.01 mL/min/kg | 0.0093 | 3.2 h | 0.34 L/kg | 30.7 mL/min/kg | 0.021 | – | – | – |
| C[C@@H]1O[C@@H]1P(=O)(O)O | 2.7 h | 0.32 L/kg | 2 mL/min/kg | – | – | – | – | 1.9 h | 0.77 L/kg | 6.9 mL/min/kg | 1 | – | – | – |
| CON=C(C(=O)NC1C(=O)N2C(C(=O)O)=C(COC(C)=O)CS[C@H]12)c1csc(N)n1 (some centres not stated) | 1.2 h | 0.19 L/kg | 2.7 mL/min/kg | 0.6 | – | – | 0.59 | 1.2 h | 0.5 L/kg | 8.13 mL/min/kg | – | – | – | – |
| O=c1n(CCCN2CCN(c3cccc(Cl)c3)CC2)nc2ccccn12 | 6.2 h | 0.52 L/kg | 1.4 mL/min/kg | 0.08 | 1.76 L/kg | 51.8 mL/min/kg | 0.12 | 7.3 h | – | – | – | – | – | – |
| CC(=O)CC(c1ccccc1)c1c(O)c2ccccc2oc1=O (configuration not stated) | 39 h | 0.13 L/kg | – | – | 0.24 L/kg | 0.17 mL/min/kg | 0.405 | – | 0.28 L/kg | 0.3 mL/min/kg | – | – | – | – |
